Source: ChEMBL document CHEMBL6083268, “Discovery of BAY 2413555, First Selective Positive Allosteric Modulator of the M2 Receptor to Restore Cardiac Autonomic Balance” (J Med Chem, 2024)
Converted amounts (≈) assume the structure as drawn.

How the values were obtained:
[1] = molecular target: T1, Muscarinic acetylcholine receptor M2 (Homo sapiens, UniProt P08172); experiment: Displacement of [3H]7-[(3R,4R)-3,4-Dihydroxypyrrolidin-1-yl]-6-fluoro-4-oxo-N-[3,3,4,4,4-pentafluorobutan-2-yl]-1-(2,4,6-trifluorophenyl)-1,4-dihydro-1,8-naphthyridine-3-carboxamide from human M2 muscarinic acetylcholine receptor expressed in CHO-S cells in presence of acetylcholine by competitive radioligand binding assay; format: cell-based
T1 sequence (P08172 whole entry): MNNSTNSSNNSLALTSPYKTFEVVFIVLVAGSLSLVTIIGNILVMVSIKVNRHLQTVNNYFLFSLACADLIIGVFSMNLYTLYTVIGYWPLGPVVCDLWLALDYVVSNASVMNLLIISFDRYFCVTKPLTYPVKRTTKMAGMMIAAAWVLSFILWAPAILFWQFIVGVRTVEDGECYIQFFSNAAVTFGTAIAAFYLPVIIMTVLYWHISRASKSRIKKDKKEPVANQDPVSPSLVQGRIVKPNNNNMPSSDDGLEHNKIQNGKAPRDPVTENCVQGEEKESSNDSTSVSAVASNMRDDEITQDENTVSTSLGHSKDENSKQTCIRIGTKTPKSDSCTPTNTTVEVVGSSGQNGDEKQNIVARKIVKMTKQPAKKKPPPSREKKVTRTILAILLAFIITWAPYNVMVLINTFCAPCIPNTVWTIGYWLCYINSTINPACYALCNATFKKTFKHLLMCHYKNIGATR

[2] = molecular target: T1, Muscarinic acetylcholine receptor M2
Description: Positive allosteric modulator activity at human M2 receptor co-expressing mouse GIRK1 and rat GIRK4 subunits in CHO-DUKX cells assessed as changes in acetylcholine-induced membrane potential hyperpolarization by FLIPR analysis

[3] = Intrinsic clearance in rat hepatocytes measured for 90 mins by LC-MS/MS analysis; format: ADME, cell-based, Hepatocyte; conditions: read-out: CLH (converted)
[4] = Half-life in Wistar rat at 0.3 mg/kg, iv administered as bolus dose by LC-MS analysis; format: ADME, organism-based; conditions: in vivo
[5] = Apparent permeability of the compound across apical to basolateral sides in human Caco-2 cells at 2 uM measured after 2 hrs by LC-MS/MS analysis; format: ADME, cell-based
[6] = Blood clearance in Wistar rat at 0.3 mg/kg, iv administered as bolus dose by LC-MS analysis; format: ADME, organism-based
[7] = Volume of distribution at steady state in Wistar rat at 0.3 mg/kg, iv administered as bolus dose by LC-MS analysis; format: ADME, organism-based; conditions: in vivo, read-out: Vdss
[8] = Solubility of the compound in PBS buffer at pH 6.5 measured after 24 hrs by LC-MS/MS analysis; format: physicochemical
[9] = Fraction unbound in human plasma; format: ADME, cell-free
[10] = Efflux ratio of apparent permeability across basal to apical membrane over apical to basal membrane in human Caco-2 cells at 2 uM measured after 2 hrs by LC-MS/MS analysis
[11] = Oral bioavailability in Wistar rat at 1 mg/kg by LC-MS analysis; format: ADME, organism-based; conditions: in vivo
[12] = Fraction unbound in rat plasma; format: ADME, cell-free
[13] = Tmax in Wistar rat at 1 mg/kg, po by LC-MS/MS analysis; format: ADME, organism-based; conditions: in vivo
[14] = Half life in Wistar rat at 1 mg/kg, po by LC-MS/MS analysis; format: ADME, organism-based; conditions: in vivo

SMILES	predicted hepatic blood clearance at […] [3] [mL/min/kg]	half-life [4] [h]	Papp A→B at 2 h, 2 µM [5] [×10⁻⁶ cm/s]	clearance [6] [mL/min/kg]	Vd [7] [L/kg]	solubility at 24 h [8] [µg/mL]	also measured
COc1nc2sc(C(=O)NC3CC3)c(N)c2c(C)c1Cl							Ki [1]: 3000 nM; EC50 [2]: 2400 nM
O=C(NC12CC3CC(CC(C3)C1)C2)c1cn(-c2ccc(F)cc2F)c2nc(N3CCCC3=O)ccc2c1=O	60						
CC[C@H](NC(=O)c1cn(-c2c(F)cc(F)cc2F)c2nc(N3C[C@@H](O)[C@H](O)C3)ccc2c1=O)C(F)(F)F	21.7	1.6	1.2	25	3.5	13 (≈ 24.5 µM)	
CC[C@@H](NC(=O)c1cn(-c2ccccc2Cl)c2nc(N3C[C@@H](O)CC3=O)ccc2c1=O)C(F)(F)F	43.3					0.3 (≈ 0.59 µM)	
CN(C)c1ccc2c(=O)c(C(=O)NC34CC5CC(CC(C5)C3)C4)cn(-c3ccc(F)cc3F)c2n1	41.7						
CC[C@H](NC(=O)c1cn(-c2c(F)cccc2F)c2nc(N3C[C@@H](O)CC3=O)ccc2c1=O)C(F)(F)F	25					1.5 (≈ 2.94 µM)	
CC[C@@H](NC(=O)c1cn(-c2ccccc2F)c2nc(N3C[C@@H](O)CC3=O)ccc2c1=O)C(F)(F)F	31.7					1.1 (≈ 2.23 µM)	
CC[C@@H](NC(=O)c1cn(-c2c(Cl)cccc2Cl)c2nc(N3C[C@@H](O)CC3=O)ccc2c1=O)C(F)(F)F	43.3						
O=C(N[C@@H](C1CC1)C(F)(F)F)c1cn(-c2c(F)cc(F)cc2F)c2nc(N3C[C@@H](O)[C@H](O)C3)ccc2c1=O	18.3	4.6	12.9	15	3.7	12.5 (≈ 23 µM)	fraction unbound [9]: 0.033; efflux ratio at 2 h, 2 µM [10]: 8; bioavailability [11]: 19%; fraction unbound [12]: 0.025
O=C(NC12CC3CC(CC(C3)C1)C2)c1cn(-c2ccc(F)cc2F)c2nc(N3CCCC3)ccc2c1=O	50						
CC[C@@H](NC(=O)c1cn(-c2c(F)cccc2F)c2nc(N3C[C@@H](O)CC3=O)ccc2c1=O)C(F)(F)F	21.7	1.2	48.2	21.7	1.7	2.9 (≈ 5.68 µM)	fraction unbound [9]: 0.023; efflux ratio at 2 h, 2 µM [10]: 0.8; bioavailability [11]: 29%; fraction unbound [12]: 0.009
CC[C@H](NC(=O)c1cn(-c2c(F)cc(F)cc2F)c2nc(N3C[C@@H](O)CC3=O)ccc2c1=O)C(F)(F)F	16.7	3.4	46.2	20	3.5	0.4 (≈ 0.757 µM)	fraction unbound [9]: 0.03; efflux ratio at 2 h, 2 µM [10]: 0.6; bioavailability [11]: 91%; fraction unbound [12]: 0.02
CC[C@@H](NC(=O)c1cn(-c2ccc(F)cc2F)c2nc(N3C[C@@H](O)CC3=O)ccc2c1=O)C(F)(F)F	22.7	0.8	45.6	26.7	0.8	1.9 (≈ 3.72 µM)	efflux ratio at 2 h, 2 µM [10]: 0.9; bioavailability [11]: 29%; fraction unbound [12]: 0.008
CC[C@@H](NC(=O)c1cn(-c2c(F)cc(F)cc2F)c2nc(N3C[C@@H](O)CC3=O)ccc2c1=O)C(F)(F)F	31.7	0.9	43.4	56.7	2.3	2.2 (≈ 4.16 µM)	efflux ratio at 2 h, 2 µM [10]: 0.6
CC[C@@H](NC(=O)c1cn(-c2c(Cl)cc(F)cc2Cl)c2nc(N3C[C@@H](O)CC3=O)ccc2c1=O)C(F)(F)F	31.7					< 0.1	
CC(C)(C)[C@H](NC(=O)c1cn(-c2c(F)cc(F)cc2F)c2nc(N3C[C@@H](O)[C@H](O)C3)ccc2c1=O)C(F)(F)F	41.7					1.4 (≈ 2.51 µM)	
O=C(NC1(C(F)(F)F)CCCC1)c1cn(-c2c(F)cc(F)cc2F)c2nc(N3C[C@@H](O)[C@H](O)C3)ccc2c1=O	60						
O=C(NC1(C(F)(F)F)CCC1)c1cn(-c2c(F)cc(F)cc2F)c2nc(N3C[C@@H](O)[C@H](O)C3)ccc2c1=O	58.3					0.9 (≈ 1.66 µM)	
O=C(Nc1c(Cl)cccc1Cl)c1cn(-c2ccc(F)cc2F)c2nc(N3C[C@@H](O)CC3=O)ccc2c1=O	26.7						
CC[C@H](NC(=O)c1cn(-c2ncc(F)cc2F)c2nc(N3C[C@@H](O)CC3=O)ccc2c1=O)C(F)(F)F	6.67					1.8 (≈ 3.52 µM)	
CC[C@H](NC(=O)c1cn(-c2c(F)cc(F)cc2F)c2nc(N3CC4CC4(O)C3)ccc2c1=O)C(F)(F)F (mixture of isomers)	56.7					< 0.1	
CCC(NC(=O)c1cn(-c2c(F)cc(F)cc2F)c2nc(N3C[C@@H](O)[C@H](O)C3)ccc2c1=O)C(F)(F)C(F)(F)F (single isomer, unassigned; diastereomer 1)	33.3	2.1	8.3	8.33	1.2	62 (≈ 107 µM)	fraction unbound [9]: 0.018; bioavailability [11]: 22%; fraction unbound [12]: 0.013
CC(NC(=O)c1cn(-c2c(F)cc(F)cc2F)c2nc(N3C[C@@H](O)[C@H](O)C3)ccc2c1=O)C(F)(F)C(F)(F)F (single isomer, unassigned; diastereomer 1)	13.3	2.1	19.3	11.7	2.5	54.7 (≈ 96.6 µM)	bioavailability [11]: 21%
CCC(NC(=O)c1cn(-c2c(F)cc(F)cc2F)c2nc(N3C[C@@H](O)[C@H](O)C3)c(F)cc2c1=O)C(F)(F)C(F)(F)F (single isomer, unassigned; diastereomer 1)	20	1.8	11.3	23.3	3	11.2 (≈ 18.7 µM)	Tmax [13]: 6 h; half-life [14]: 4.2 h; bioavailability [11]: 48%; fraction unbound [12]: 0.006
CC(C)(C)C(NC(=O)c1cn(-c2c(F)cc(F)cc2F)c2nc(N3C[C@@H](O)[C@H](O)C3)c(F)cc2c1=O)C(F)(F)C(F)(F)F (single isomer, unassigned; diastereomer 2)	51.7		6			0.4 (≈ 0.638 µM)	
